Columns and labels:
[1] = Mussel larvae acute toxicity (mortality); settings: Mytilus galloprovincialis, in vivo, other: waterborne exposure in 24-well plates; 15 h acute exposure
Protocol: The in vivo antimacrofouling activity of compounds (1) and (2) was evaluated against mussel M. galloprovincialis adhesive larvae (plantigrades) in an acute bioassay. Juvenile mussel aggregates were harvested from the intertidal rocky shore during low spring tides at Memória beach, Matosinhos, Portugal. In the laboratory, precisely before the bioassays, mussel plantigrade larvae were meticulously screened and isolated from the juvenile aggregates using a binocular microscope (Olympus SZX2-ILLT, Hamburg, Germany). The isolated larvae were then washed with filtered seawater to eliminate organic debris, and competent plantigrade larvae, characterized by foot exploratory behavior, were selected for the exposure bioassays, following established protocols ([Almeida et al., 2017]; [Almeida et al., 2020]; [Antunes et al., 2019]; [Mabrouk et al., 2020]). Plantigrades were exposed in 24-well polystyrene plates for 15 h in darkness at 18°C. DMSO served as the solvent for the testing compounds in stock and working solutions. The DMSO concentration in the tested solutions was consistently maintained at 0.1%. […] The anti-settlement bioactivity was assessed based on the presence or absence of fixed byssal threads produced by each individual larva for all tested conditions. […] EC50 values for each compound were calculated using Probit regression analysis. […]

M. hydrocarbonoclasticus = assay: Antibacterial activity (growth inhibition, OD600); format: cell-based, Marinobacter hydrocarbonoclasticus DSM 8798; settings: 24 h
Protocol: (§1) To assess antimicrofouling activity, we selected five marine bacterial species as models: Marinobacter hydrocarbonoclasticus DSM 8798 (ATCC 49840), C. marina DSM 4741, Phaeobacter inhibens DSM 17,395, Pseusooceanicola batsensis DSM 15,984, and Micrococcus luteus DSM 20030 (ATCC 4698) ([Michael et al., 2016]). These strains, sourced from DSMZ (Leibniz Institute DSMZ—German Collection of Microorganisms and Cell Cultures), were cultured in liquid marine broth (Carl Roth GmbH, Karlsruhe, Germany) with agitation at 180 rpm or on agar-supplemented marine broth. Incubation temperatures were set at 28°C for M. hydrocarbonoclasticus and Cobetia marina, 30°C for P. inhibens and P. batsensis, while M. luteus was maintained at 37°C in Brain Heart Infusion broth (BHI, Becton Dickinson, GmbH, Heidelberg, Germany) under similar agitation conditions.
The antibacterial efficacy of compounds (1) and (2) was assessed in 96-well polystyrene flat-bottom microplates (Nunclon Delta Surface, Thermo Scientific, Roskilde, Denmark) following established procedures ([Bauermeister et al., 2019]). In the initial screening, bacterial overnight cultures were diluted to an optical density (OD600nm) of 0.2 and incubated statically at appropriate temperatures. The cultures were treated with the following final concentrations per well: 31.25, 15.60, 7.81, 3.91, 1.95, and 0.98 μg/mL (2-fold serial dilutions) of the compounds, solubilized in DMSO, or left untreated. After 24 h (M. hydrocarbonoclasticus, C. marina) or 48 h (P. batsensis, P. inhibens, M. luteus) incubation, optical density at 600 nm (OD600) was measured using a Molecular Devices Spectra Max 190. Growth inhibition percentages were calculated relatively to untreated bacterial species, using DMSO as a negative control. CuSO4 (0.16 μg/mL), a recognized antifouling agent, was used as positive control. All assays were conducted in triplicate, and the results represent the mean and standard error of the mean (SEM). Statistical analysis was carried out using GraphPad Prism 8.0.2 (San Diego, CA, United States), employing one-way ANOVA followed by Dunnett’s multiple comparisons test against the negative control.

C. marina = assay: Antibiofilm activity (inhibition of biofilm formation); format: cell-based, Cobetia marina DSM 4741; settings: for Biofilm inhibition, up to (highest over tested concentrations) C. marina: 0.98-31.25 µg/mL tested; for inhibition at 0.98 µg/mL / inhibition at 1.95 µg/mL / inhibition at 3.91 µg/mL / inhibition at 7.81 µg/mL / inhibition at 15.6 µg/mL / inhibition at 31.25 µg/mL: Cobetia marina, 24 h; for inhibition at 15.6 µg/mL: 15.60 µg/mL
Protocol: as §1
The antibiofilm potential of compounds (1) and (2) against the five marine bacterial species was investigated in 96-well polystyrene flat-bottom microplates (Nunclon Delta Surface, Thermo Scientific, Roskilde, Denmark), as described previously ([Bauermeister et al., 2019]; [Pereira et al., 2020]). In the initial screening, bacterial overnight cultures were diluted to an OD600 of 0.2 and incubated statically at appropriate temperatures. The cultures were tested at 31.25, 15.60, 7.81, 3.91, 1.95, 0.98 μg/mL concentrations (2-fold serial dilutions) of compounds (1) and (2), solubilized in DMSO, or left untreated. After 24 h (M. hydrocarbonoclasticus, C. marina) or 48 h (P. batsensis, P. inhibens, M. luteus) incubation, OD600 was measured. The planktonic cells and media were discarded, and the wells were washed twice with deionized water. Biofilms were fixed, stained, and quantified by measuring the OD600 after solubilization with acetic acid. Biofilm inhibition percentages were calculated relative to untreated bacterial species, using DMSO as a negative control and CuSO4 (0.16 μg/mL), as a positive control. All assays were performed in triplicate, and the results represent the mean and standard error of the mean (SEM). Statistical analysis was conducted using GraphPad Prism 8.0.2, employing one-way ANOVA followed by Dunnett’s multiple comparisons test against the negative control.

| Compound | LC50 at 15 h [1] [µg/mL] | Growth inhibition (%) M. hydrocarbonoclasticus (M. hydrocarbonoclasticus; 0.98 µg/mL) | Growth inhibition (%) M. hydrocarbonoclasticus (M. hydrocarbonoclasticus; 1.95 µg/mL) | Growth inhibition (%) M. hydrocarbonoclasticus (M. hydrocarbonoclasticus; 3.91 µg/mL) | Growth inhibition (%) M. hydrocarbonoclasticus (M. hydrocarbonoclasticus; 7.81 µg/mL) | Growth inhibition (%) M. hydrocarbonoclasticus (M. hydrocarbonoclasticus; 15.60 µg/mL) | Growth inhibition (%) M. hydrocarbonoclasticus (M. hydrocarbonoclasticus; 31.25 µg/mL) | Biofilm inhibition, up to (highest over tested concentrations) C. marina (C. marina) | inhibition at 0.98 µg/mL (C. marina) [%] | inhibition at 1.95 µg/mL (C. marina) [%] | inhibition at 3.91 µg/mL (C. marina) [%] | inhibition at 7.81 µg/mL (C. marina) [%] | inhibition at 15.6 µg/mL (C. marina) [%] | inhibition at 31.25 µg/mL (C. marina) [%] | inhibition at 31.25 µg/mL (M. hydrocarbonoclasticus; Marinobacter nauticus, 31.25 µg/mL) [%] |
| --- | --- | --- | --- | --- | --- | --- | --- | --- | --- | --- | --- | --- | --- | --- | --- |
| CC1=CCC[C@@H](C)[C@]1(C)CC[C@@]1(C)c2c(O)cc3c(c2O[C@@H]1C)C(=O)C=C(CO)C3=O (relative stereo) [compound 1, madeirone] | > 10 | N.I. | N.I. | N.I. | N.I. | N.I. | N.I. | up to 40% | 28.6 ± 23.2 | 31.6 ± 15.3 | 36.3 ± 6.4 | 39.2 ± 5.4 | 41.7 ± 10 | 31 ± 9.6 |  |
| CC1=CCC[C@@H](C)[C@]1(C)CC[C@@]1(C)c2c(O)cc3c(c2O[C@@H]1C)C(=O)C(C)=C(O)C3=O [compound 2, neomarinone] | > 4 | N.I. | N.I. | N.I. | N.I. | N.I. |  | ≤ 46% | 26.5 ± 3.8 | 24.5 ± 3 | 26.9 ± 3.3 | 34.4 ± 7.4 | 42.6 ± 6.3 | 45.8 ± 2.9 | 4.2 ± 0.8 |

Source: paper PMC11306024, “Novel metabolite madeirone and neomarinone extracted from Streptomyces aculeoletus as marine antibiofilm and antifouling agents” (Frontiers in Chemistry, 2024)
